Like-named read-outs stand apart in the source and are kept apart here.
Key:
[1] = target: T1, hTLR7 (human Toll-like receptor 7) (Homo sapiens, UniProt Q9NYK1); assay: HEK-Blue hTLR7 reporter assay (QUANTI-Blue, OD650); assay type: cell-based; settings: HEK-Blue hTLR7 cells, 24 h, read-out: Reporter assay TLR7 EC50
T1 construct: host or cells: HEK-Blue hTLR7 (HEK293-derived reporter cells)
T1 sequence (Q9NYK1 27-1049): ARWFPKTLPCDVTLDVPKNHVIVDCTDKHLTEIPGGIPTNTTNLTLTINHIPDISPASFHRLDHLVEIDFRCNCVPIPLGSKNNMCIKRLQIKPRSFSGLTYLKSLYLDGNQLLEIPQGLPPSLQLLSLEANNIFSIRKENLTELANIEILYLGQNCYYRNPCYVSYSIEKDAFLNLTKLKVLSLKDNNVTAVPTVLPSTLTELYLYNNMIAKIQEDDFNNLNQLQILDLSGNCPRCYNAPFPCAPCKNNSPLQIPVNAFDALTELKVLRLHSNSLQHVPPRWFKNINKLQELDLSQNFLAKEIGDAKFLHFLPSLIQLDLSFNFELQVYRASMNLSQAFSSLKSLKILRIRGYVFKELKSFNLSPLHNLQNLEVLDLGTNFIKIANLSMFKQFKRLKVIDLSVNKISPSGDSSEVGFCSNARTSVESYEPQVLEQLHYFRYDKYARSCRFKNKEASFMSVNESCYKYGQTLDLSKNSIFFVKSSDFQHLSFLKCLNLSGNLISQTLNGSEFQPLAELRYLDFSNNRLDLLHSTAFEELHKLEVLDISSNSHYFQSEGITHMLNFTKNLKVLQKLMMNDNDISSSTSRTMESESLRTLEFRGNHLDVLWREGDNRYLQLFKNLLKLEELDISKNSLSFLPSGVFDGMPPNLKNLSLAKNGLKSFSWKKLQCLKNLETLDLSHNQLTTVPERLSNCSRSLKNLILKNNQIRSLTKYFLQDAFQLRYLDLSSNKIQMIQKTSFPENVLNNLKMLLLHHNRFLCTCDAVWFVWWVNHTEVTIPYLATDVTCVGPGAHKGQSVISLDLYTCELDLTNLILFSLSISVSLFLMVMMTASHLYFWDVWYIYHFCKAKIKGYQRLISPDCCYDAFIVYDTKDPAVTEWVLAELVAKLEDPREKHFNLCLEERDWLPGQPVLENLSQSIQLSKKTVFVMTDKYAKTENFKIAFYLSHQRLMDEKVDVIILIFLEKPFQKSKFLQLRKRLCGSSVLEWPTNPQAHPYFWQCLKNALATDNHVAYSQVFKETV
Protocol: In this example, the agonistic activity of the compounds of the present application on hTLR7 (human Toll-like receptor 7) and hTLR8 (human Toll-like receptor 8) was assessed; the induction activity of the compounds on human PBMCs for TNF-α and IFN-α production was assessed in human PBMCs (human peripheral blood mononuclear cells).
All compounds were formulated in DMSO into 30 mM stock solutions and preserved at 4° C. The reference compound ([…], Cat. No. tlrl-r848-5) was purchased from InvivoGen and formulated into a 5 mg/mL stock solution in DMSO and preserved in a freezer at −20° C. HEK-Blue hTLR7 and HEK-Blue hTLR8 cell lines were purchased from InvivoGen, and human PBMCs were purchased from Shanghai Saily Biotechnology Co., Ltd. (Cat. No. XFB—HP100B).
The major instruments used in this study were multifunctional microplate reader Flexstation III (Molecular Device), Envision (Perkin Elmer), M2e (Molecular Device), and Echo555 (Labcyte). 2.1 Agonistic activity of compounds on hTLR7 (human Toll-like receptor 7) and hTLR8 (human Toll-like receptor 8)
Compound dilution: The compounds of the present application are diluted in DMSO, for example, to about 15 mM. The reference compound was added to the plates in sequence after dilution. The compounds were serially 3-fold diluted to 10 concentrations and added to 96-well plates in duplicate.
For the negative control wells, DMSO was added at 0.2 μL/well, and the reference compound was added to the positive control wells. The final concentration of DMSO was 0.2%.
Cell plating: When an 80% confluence of HEK Blue hTLR7&8 cells in the culture flask was observed under a microscope, the culture medium was discarded, 10 mL of detection medium was added, and the cells were separated by pipetting. The cells were counted on a cytometer and diluted to 500,000 cells/mL. The cells were plated at 100 μL/50,000 cells/well in the 96-well plates containing the compounds. The compounds and cells were co-incubated at 37° C. in a 5% CO2 incubator for 24 hours.
Compound activity detection: 20 μL of cell supernatant was taken from each well and added to a plate containing QUANTI-Blue™ reagent at 180 μL/well. The plate was incubated at 37° C. for 1 hour, and the absorbance at 650 nm (OD650) was measured on the multifunctional microplate reader Flexstation III.
Compound activity data analysis: The OD650 values were analyzed by GraphPad Prism software and fitted to give dose-response curves of the compounds. The EC50 values of compounds were calculated.

[2] = tested on: TNF-α production in human PBMCs; assay: Induction of TNF-α in human PBMCs (ELISA); assay type: cell-based; settings: PBMC, 24 h, read-out: PBMC assay TNFa EC50
Protocol: In this example, the induction activity of the compounds of the present application on human PBMCs for TNF-α and IFN-α production was assessed in human PBMCs (human peripheral blood mononuclear cells). The human PBMCs were purchased from Shanghai Saily Biotechnology Co., Ltd. (Cat. No. XFB—HP100B). PBMC cells were treated with the compounds. The compounds of the present application are diluted in DMSO, for example, to about 15 mM. The reference compound was added to the plates in sequence after diluted to 5 mg/mL. The compounds were serially 3- or 4-fold diluted to 8 concentrations and added to plates in duplicate (Table 2-1 for serial 3-fold dilutions and Table 2-2 for serial 4-fold dilutions). For the negative control wells, DMSO was added at 0.4 μL/well, and a 5 mg/mL reference compound solution was added to the positive control wells at 0.4 μL/well. The final concentration of DMSO was 0.2%. Frozen human PBMCs in cryopreservation tubes were quickly thawed in a 37° C. water bath and transferred into 50-mL centrifuge tubes. Prewarmed RPMI1640 medium was gradually added and the mixture was well mixed and centrifuged for 15 min before the supernatant was discarded. The cells were resuspended in a culture medium and counted. The cell suspension was adjusted to 2.5×10^6 cells/mL with the culture medium. Diluted cells were added at 200 μL/500,000 cells/well in 96-well plates containing the compounds. The cell plates were incubated at 37° C./5% CO2 for 24 h.
The plate was then washed thrice. […] Termination of reaction: The reaction was terminated by quickly adding the stop solution at 100 μL/well. Plate reading: The reading at wavelength 450 nm was detected by an M2e instrument within 10 min after the termination.
Compound activity data analysis: The OD450 values were converted to TNF-α and IFN-α contents by GraphPad Prism software analysis and fitted to give dose-response curves of the compounds. The EC50 values for the compounds were calculated, where the Emax values are the maximal values for TNF-α and IFN-α.

[3] = serial 4-fold dilutions, class symbols

Row | SMILES | EC50 ([1]; class symbols) [nM] | EC50 [2, 3] [nM] | EC50 [1] [nM] | EC50 ([2]; serial 3-fold dilutions) [nM]
1 | CCCN(OCc1ccc(N)cc1)C(=O)C1=Cc2ccc(C(=O)Nc3cccc(CN)c3)cc2N=C(N)C1 [Compound 86] | > 1000 | ≤ 10 |  | 
2 | CCCN(OCc1ccc(N)cc1)C(=O)C1=Cc2ccc(-c3cncc(C(=O)O)c3)cc2N=C(N)C1 [Compound 32] | > 1000 | 10 to 50 |  | 
3 | CCCN(OCc1ccc(N)cc1)C(=O)C1=Cc2ncc(-c3cncc(CO)c3)cc2N=C(N)C1 [Compound 61] | 100 to 1000 | ≤ 10 |  | 
4 | CCCN(OCc1ccc(N)cc1)C(=O)C1=Cc2ccc(-c3cncc(S(=O)(=O)N4CCNCC4)c3)cc2N=C(N)C1 [Compound 69] | 100 to 1000 | ≤ 10 |  | 
5 | CCCN(OCc1ccc(N)cc1)C(=O)C1=Cc2ccc(C(=O)N[C@@H](C)c3ccccc3)cc2N=C(N)C1 [Compound 77] | 100 to 1000 | ≤ 10 |  | 
6 | CCCN(OCc1ccc(N)cc1)C(=O)C1=Cc2ccc(-c3cnc4c(c3)C(=O)OC4)nc2N=C(N)C1 [Compound 63] | 100 to 1000 | ≤ 10 |  | 
7 | CCCN(OCc1ccc(N)cc1)C(=O)C1=Cc2ccc(-c3cncc(S(C)(=O)=O)c3)cc2N=C(N)C1 [Compound 56] |  |  | 664 | 7.35
8 | CCCN(OCc1ccc(N)cc1)C(=O)C1=Cc2ccc(-c3cccc(S(=O)(=O)N4CCNCC4)c3)cc2N=C(N)C1 [Compound 67] | 100 to 1000 | ≤ 10 |  | 
9 | CCCN(OCc1ccc(N)cc1)C(=O)C1=Cc2ccc(-c3cncc(CN)c3)cc2N=C(N)C1 [Compound 54] |  |  | 528 | 3.98
10 | CCCN(OCc1ccc(N)cc1Cl)C(=O)C1=Cc2ncc(-c3cncc(CO)c3)cc2N=C(N)C1 [Compound 59] | 100 to 1000 | ≤ 10 |  | 
11 | CCCN(OCc1ccc(N)cc1)C(=O)C1=Cc2ccc(-c3cccc(S(N)(=O)=O)c3)cc2N=C(N)C1 [Compound 35] |  |  | 758 | 5
12 | CCCN(OCc1ccc(N)cc1)C(=O)C1=Cc2ccc(C(=O)N3CCN(c4ccccc4)CC3)cc2N=C(N)C1 [Compound 97] | > 1000 | ≤ 10 |  | 
13 | CCCN(OCc1ccc(N)cc1)C(=O)C1=Cc2ccc(C(=O)NC(C)(C)c3ccccc3)cc2N=C(N)C1 [Compound 76] | 100 to 1000 | ≤ 10 |  | 
14 | CCCN(OCc1ccc(N)cc1)C(=O)C1=Cc2ccc(-c3ccc(C(=O)N4CC[C@@H](O)C4)cc3)cc2N=C(N)C1 [Compound 42] | > 1000 | 10 to 50 |  | 37
15 | CCCN(OCc1ccc(N)cc1)C(=O)C1=Cc2ccc(-c3cncc([S+](C)[O-])c3)cc2N=C(N)C1 (stereo not shown) [Compound 73] | 100 to 1000 | ≤ 10 |  | 
16 | CCCN(OCc1ccc(N)cc1)C(=O)C1=Cc2ccc(-c3cncc(S(=O)(=O)N4CCC(O)CC4)c3)cc2N=C(N)C1 [Compound 71] | 100 to 1000 | ≤ 10 |  | 
17 | CCCN(OCc1ccc(N)cc1)C(=O)C1=Cc2ccc(-c3cccc(S(=O)(=O)N4CCOCC4)c3)cc2N=C(N)C1 [Compound 68] | 100 to 1000 | ≤ 10 |  | 
18 | CCCN(OCc1ccc(N)cc1)C(=O)C1=Cc2ccc(-c3cncc(S(=O)(=O)NCCO)c3)cc2N=C(N)C1 [Compound 70] | 100 to 1000 | ≤ 10 |  | 
19 | CCCN(OCc1ccc(N)cc1)C(=O)C1=Cc2ccc(C(=O)N3CC(CO)C3)cc2N=C(N)C1 [Compound 37] | > 1000 | 10 to 50 |  | 
20 | CCCN(OCc1ccc(N)cc1OC)C(=O)C1=Cc2ncc(-c3cncc(CO)c3)cc2N=C(N)C1 [Compound 60] | 100 to 1000 | ≤ 10 |  | 
21 | CCCN(OCc1ccc(N)cc1)C(=O)C1=Cc2ccc(C(=O)Nc3ncco3)cc2N=C(N)C1 [Compound 87] | > 1000 | ≤ 10 |  | 

Source: patent US20250059141A1, “TLR MODULATOR AND USE THEREOF” (DUALITY BIOLOGICS (SUZHOU) CO., LTD., priority 2021, published 2025)
